Patent publication US20250002854A1, “METHODS OF GENERATING POPULATIONS OF TUMOUR-INFILTRATING T CELLS” (LYTIX BIOPHARMA AS, priority 2016, published 2025)
“Also recorded” adds a separate entry of the source. Square brackets hold non-standard residues; d marks the D form. Ends that are not written are not given here. Dip = N[C@H](C(=O)O)C(c1ccccc1)c1ccccc1

Assays:
B16F1 cells = assay: Release of HMGB1 (Western blot); assay type: cell-based, murine; details: 108 μM
Description: B16F1 cells were seeded at a density of 2×10^5 cells/well in 6-well plates in a complete medium, and allowed to adhere overnight. Cells were treated with 108 μM of LTX-401 (4×IC50^4h), and incubated at 37° C. (>95% humidity and 5% CO2) for different time points (10, 30, 60, 90 and 120 minutes). Serum-free RPMI 1640 was used as a negative control, and supernatants (S) were collected and centrifuged at 1,400 g for 5 min before being up-concentrated using Amicon Ultra-0.5 Centrifugal Filter units with Ultracel-50 membrane (Milipore, Norway). Cell lysates (L) were harvested after washing with 2 mL of serum-free RPMI-1640 and subjected to a lysis buffer (mastermix) containing 2×NuPAGE LDS Sample buffer (Invitrogen, Norway), a 1×NuPAGE Sample Reducing Agent (Invitrogen, Norway) and 50% sterile H20. Both supernatants and lysates were boiled at 70° C. for 10 min and resolved on NuPAGE Novex 4-12% Bis-Tris Gels (Millipore, Norway) before being electrotransferred to a polyvindiline difluoride (PVDF) membrane (Millipore, Norway). […]

B16F1 melanoma cells = assay: Kill kinetics (MTT); assay type: cell-based, murine
Description: Cells were seeded as previously described for MTT assay, and incubated with LTX-401 solutions for 5, 15, 30, 60, 90, 120 and 240 minutes. Cells were washed once with 100 μl of serum-free RPMI-1640 after incubation, and further incubated in a 10% MTT solution (diluted in a serum-free RPMI-1640) for an additional 2 h.

murine B16 melanomas = assay: Murine melanoma model, intratumoural injections of LTX-401; assay type: in vivo
MCA205 sarcomas = assay: T-cell depletion, tumour growth of MCA205 sarcomas; assay type: in vivo, C57BL/6 mice; details: three intratumoural daily injections of 300 μg
Description: Mice were subcutaneously injected into the right flank with 1×10^6 MCA205 cells. Tumour cell lines were inoculated into C57BL/6 mice. Tumour surfaces (longest dimension×perpendicular dimension) were routinely monitored by caliper. When tumours reached a size of 20-25 mm^2 (day 0), mice were administered intratumourally with three consecutive daily injections of 300 μg LTX-315. In T-cell depletion experiments (FIG. 24), anti-CD4 and anti-CD8 monoclonal antibodies (mAbs) (GK1.5 and 53-6.72, respectively; 200 μg per mouse) or their isotype controls (LTF-2 and 2A3, respectively) were injected intraperitoneally 3 and 4 days before the first LTX-315 injection and continued every other 7 days. All mAbs for in vivo use were obtained from BioXcell (West Lebanon, NH, USA), using the recommended isotype control mAbs.

A375 cells [1] = assay: Fluorescence measurement of reactive oxygen species (DCFDA); assay type: cell-based, human; details: 15 minutes of incubation, different concentrations
Description: A DCFDA cellular reactive oxygen species detection assay kit was purchased from abcam®, and A375 cells seeded in a 96-well Costar black clear bottom plate with 20,000 cells per well incubated in 37° C. 16 hours prior to DCFDA assay. Cells were washed with a 100 μL/well of pre-warmed PBS one time, and incubated with 20 µM of DCFDA in a buffer solution supplied with the kit at 37° C. in a cell culture incubator for 45 min, and then washed again with a buffer solution of 100 μL/well. […] The fluorescence intensity was determined at an excitation wavelength of 485 nm and an emission wavelength of 530 nm on a FLUOstar Galaxy plate reader.

A375 cells [2] = assay: TEM electron microscopy of A375 cells; assay type: cell-based, human
Description: A375 cells were seeded at 1×10^5 cells per well in 6-well plates and allowed to grow for three days to optimize membrane structures in the culture, and the media was changed on the second day. Cells were washed twice in serum-free RPMI before being treated with LTX-315 dissolved in serum-free RPMI at 5, 10 and 25 μg/ml, with serum-free RPMI as a negative control. Cells were then washed with PBS twice before fixation for 24 hours in 4° C. with 4% formaldehyde and 1% gluteralaldehyde in a Hepes buffer at pH 7.8. Dehydration and post-fixation protocols included incubation in a 5% buffered tannic acid and incubation in a 1% osmium-reduced ferrocyanide. Ultrathin sections were prepared, and uranyl acetate (5%) and Reynolds's lead citrate were used for staining and contrasting. Samples were examined on a JEOL JEM-1010 transmission electron microscope, and images were taken with an Olympus Morada side-mounted TEM CCD camera (Olympus soft imaging solutions, GmbH, Germany).

Row | Molecule | time at which HMGB1 translocation was absolute (B16F1 cells) | time at which release of HMGB1 occurs (B16F1 cells) | cell survival (B16F1 melanoma cells; 54 μM, after two hours) | time until cellular survival reduced to a minimum (B16F1 melanoma cells; 108 μM) | kill ratio (B16F1 melanoma cells; 108 μM, after 15 min) | cell death (B16F1 melanoma cells; 108 μM, two hours after start of treatment) | tumour regression / remission (murine B16 melanomas) | antitumor effects in presence of antibodies depleting CD4+ and CD8+ T cells (MCA205 sarcomas) | ROS generation (A375 cells [1]) | cells with vacuolization (A375 cells [2]; 3.5 μM) | number of necrotic cells (A375 cells [2]; 3.5 μM, 60 minutes) | ultrastructural changes (A375 cells [2]; 3.5 μM, 60 minutes) | cells displaying vacuolization (A375 cells [2]; 17 μM, 60 min) | cells with necrotic morphology and loss of plasma membrane integrity (A375 cells [2]; 17 μM, 60 min) | mode of cell killing (A375 cells [2]; TEM, A375 cells)
1 | Cl.Cl.NCCNC(=O)C(CN)(CCCc1ccccc1)CCCc1ccccc1 [LTX-401] | 90 min | 30 min | 50% | 90 to 120 min | 50% | ~100% | complete and long-lasting remission; also recorded: complete regression | – | – | – | – | – | – | – | –
2 | K-K-W-W-K-K-W-Dip-K-NH2 (KKWWKKW[Dip]K-NH2) [LTX-315] | – | – | – | – | – | – | – | completely abrogated the antitumor effects | Significant amounts of ROS were generated | approximately 20% | less than 5% | showed vacuolization, as well as some altering of the mitochondrial morphology | 4% | approximately 40% | kills the tumor cells with a lytic mode of action
